From article PMC8741257, “Identification of novel non-toxic and anti-angiogenic α-fluorinated chalcones as potent colchicine binding site inhibitors” (Journal of Enzyme Inhibition and Medicinal Chemistry, 2022) come the findings set out here.

SMILES strings stand for the structures. Where two headings read alike, the source gives them in different places.

In data set [1] the test system is U937 (human leukaemia cells). The data set is described as follows: Antiproliferative activity (CCK-8 assay). It counts as cell-based. Particulars: U-937, mean ± SD, three separated experiments, 72 h. Here is the method:
(§1) MCF-7, MGC-803, Hela and HepG-2 cell lines were cultured in a base medium (90% DMEM and 10% FBS), A549 and U937 were cultured in a base medium (90% PRMI-1640 and 10% FBS) at 37 °C, 5% CO2 and a saturated humidity atmosphere. All the mediums were supplemented with 10% FBS and 1% […]/streptomycin (all cells were purchased from Shanghai Institutes for Biological Sciences, Chinese Academy of Sciences, Shanghai, China).
(§2) MGC-803 cells were collected and seeded into 96 well plates at a density of 8000/well. The mediums containing drugs and cell suspension were added into the well. The cells were incubated in 5% CO2 incubator at 37 °C for 72 h. Each well was added 10 µL CCK8 solution, and the incubation time was 3–4 h. The absorbance value at 450 nm was measured by microplate reader. Data are calculated with GraphPad Prism5 software.
(Tetrazolium assays rely on reduction of a dye to a coloured formazan, in cell work by metabolically active cells.)

Data set [2] deals with MCF-7 (human breast cancer cells). Nature of the data set: Antiproliferative activity (SRB assay). The data set is classed as cell-based. As to conditions: MCF7, mean ± SD, three separated experiments, 72 h. Here is the method:
as §1
(§3) A549, MGC-803, MCF-7, HepG2 and Hela cells were seeded at the appropriate cell line density (3 × 10^3 to 4 × 10^3 cells/well). The cells were then incubated at 37 °C for 24 h in a humidified 5%CO2 in 96-well plates prior to experiments. After a further 72 h of incubation, cell proliferation was quantified with SRB ([…]) to determine the number of surviving cells. The absorbance at 560 nm was measured by microplate. The experiment was repeated three times, and the data were listed in the form of mean and standard deviation.

Data set [3] relates to Hela (human cervical cancer cells). Nature of the data set: Antiproliferative activity (SRB assay). It counts as cell-based. Particulars: mean ± SD, three separated experiments, 72 h. Here is the method:
as §1, §3
On the technique in general: In SRB staining, fixed cells bind dye roughly in proportion to their protein.

For data set [4], the system named is HepG2 (human liver cancer cells). Nature of the data set: Antiproliferative activity (SRB assay). It counts as cell-based. Particulars: mean ± SD, three separated experiments, 72 h. Here is the method: as §1, §3
For data set [5], the system named is A549 (human non-small cell lung cancer). Nature of the data set: Antiproliferative activity (SRB assay). The data set is classed as cell-based. Particulars: mean ± SD, three separated experiments, 72 h. Here is the method:
as §1, §3

Data set [6] has as its system six human cancer cell lines (MCF-7, MGC-803, HepG2, Hela, A549, U937). Nature of the data set: Antiproliferative activity, summary over the tested cancer cell lines. It counts as cell-based. Here is the method: as §3, §2
The test system of data set [7] is MGC-803 (human gastric cancer cells). Nature of the data set: Antiproliferative activity (SRB / CCK-8 assay). The data set is classed as cell-based. As to conditions: mean ± SD. Here is the method: as §1, §3, §2
For data set [8], the system named is THP-1-derived macrophages. Nature of the data set: Growth inhibition of normal human cells. Particulars: Macrophage, triplicate, mean ± SD. It counts as cell-based. Here is the method:
(§4) The effect of compound 4c on three types of normal human cell lines including LO2 (human hepatocyte cells), 293 T (human embryonic kidney cell) and THP-1-derived macrophages was then determined.

The subject of data set [9] is 293 T (human embryonic kidney cell). Nature of the data set: Growth inhibition of normal human cells. It counts as cell-based. Particulars: HEK-293T, triplicate, mean ± SD. Here is the method: as §4
Data set [10] deals with LO2 (human hepatocyte cells). Nature of the data set: Growth inhibition of normal human cells. The data set is classed as cell-based. Particulars: triplicate, mean ± SD. Here is the method:
as §4

Setting [11] is: three separated experiments, 72 h.

`COC(=O)c1cccc2[nH]cc(/C=C(\F)C(=O)c3cc(OC)c(OC)c(OC)c3)c12` [4f, Methyl(Z)-3–(2-fluoro-3-oxo-3–(3,4,5-trimethoxyphenyl)prop-1-en-1-yl)-1H-indole-4-carboxylate]: the melting point (usually the temperature of the solid-liquid transition) lay in the range of 118 to 119 °C. In data set [1], the IC50 – broadly, the concentration that gives 50% inhibition – was above 5000 nM. This molecule had an IC50 in data set [2] above 5000 nM. The molecule also gave an IC50 in data set [3] above 5000 nM. Moreover, the IC50 in data set [4] is above 5000 nM. The IC50 in data set [5] is above 5000 nM. The IC50 in data set [6] (tested cancer cell lines, read-out: IC50, anti-proliferative activity) is above 5000 nM. The same molecule showed a 50% inhibitory concentration (IC50) in data set [7] (setting [11]) above 5000 nM.
Molecule `COc1cc(C(=O)/C(F)=C/c2ccc3c(c2)CCO3)cc(OC)c1OC` [4n, (Z)-3–(2,3-dihydrobenzofuran-5-yl)-2-fluoro-1–(3,4,5-trimethoxyphenyl)prop-2-en-1-one] returned a melting point of 100.8 to 103.7 °C. The molecule further had an IC50 in data set [1] of 31 ± 1 nM. This molecule also came in with an IC50 in data set [2] of 128 ± 4 nM. In addition, in [3], inhibition was half-maximal at 42 ± 1 nM (IC50). The IC50 in data set [4] amounted to 116 ± 1 nM. The same molecule showed a concentration for half-maximal inhibition (IC50) in data set [5] of 364 ± 3 nM. Also, the IC50 in data set [6] (several tested cancer cell lines, range, read-out: IC50, inhibitory effect) lay in the range of 31 to 364 nM. In data set [7] (setting [11]), this molecule displayed an IC50 of 43 ± 1 nM.
As for `COc1ccc(/C=C\c2cc(OC)c(OC)c(OC)c2)cc1O` [CA-4, Combretastatin A4, reference compound], the IC50 is 0.3 nM in [1]; 8 ± 1 nM in data set [3]; 7 ± 1 nM in [4]; 5 ± 1 nM in data set [5]; 2 ± 1 nM in [7] (Table 2, triplicate); 2 ± 1 nM in data set [7] (setting [11]). For the same molecule, the IC50 in data set [8] was determined as 7 ± 1 nM; in data set [9] it was 12 ± 2 nM; in data set [10], 5 ± 1 nM.
